# Numbering of substitutions follows the chain as printed.
# Columns and labels:
# Type in all cases: biochemical
# [1] = molecular target: T1, drSLC38A9 (drSLC38A9^71-549) (Danio rerio, UniProt Q08BA4, N227Q/N235Q/N252Q/N263Q); experiment: [3H]arginine uptake in proteoliposomes, filtration, […] min; conditions: outside pH 7.4, inside pH 5.0, room temperature; 0.5 uM labelled compound
# T1 construct: gene slc38a9; residues 71-549 (N-plug kept); N-terminal His8-thrombin tag removed; Sf-9; liposomes; the printed 5A DNA also starts at residue 71
# T1 sequence (Q08BA4 71-549 N227Q/N235Q/N252Q/N263Q): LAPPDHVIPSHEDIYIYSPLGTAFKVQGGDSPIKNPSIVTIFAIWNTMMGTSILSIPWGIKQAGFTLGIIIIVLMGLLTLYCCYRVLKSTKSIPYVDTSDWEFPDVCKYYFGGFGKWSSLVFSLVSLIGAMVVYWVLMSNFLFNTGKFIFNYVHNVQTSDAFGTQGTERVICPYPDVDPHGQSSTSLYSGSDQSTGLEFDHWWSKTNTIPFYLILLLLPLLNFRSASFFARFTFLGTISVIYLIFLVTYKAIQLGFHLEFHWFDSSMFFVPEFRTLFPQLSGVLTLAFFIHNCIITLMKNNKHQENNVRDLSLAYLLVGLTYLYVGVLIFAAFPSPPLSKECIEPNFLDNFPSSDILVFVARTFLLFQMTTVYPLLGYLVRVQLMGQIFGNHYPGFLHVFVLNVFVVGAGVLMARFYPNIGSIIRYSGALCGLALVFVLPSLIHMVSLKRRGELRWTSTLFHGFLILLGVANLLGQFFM
# [2] = molecular target: T2, drSLC38A9 (drSLC38A9^71-549) (Danio rerio, UniProt Q08BA4, P79A/S80A/H81A/E82A/Y85A/N227Q/N235Q/N252Q/N263Q); experiment: [3H]leucine uptake in proteoliposomes, filtration; conditions: 0.5 uM labelled compound, pH 5.0 assay buffer, room temperature; with or without 200 uM arginine
# T2 construct: gene slc38a9; residues 71-549 (N-plug kept); N-terminal His8-thrombin tag removed; Sf-9; liposomes; the printed 5A DNA also starts at residue 71
# T2 sequence (Q08BA4 71-549 P79A/S80A/H81A/E82A/Y85A/N227Q/N235Q/N252Q/N263Q): T1 sequence (Q08BA4 71-549 N227Q/N235Q/N252Q/N263Q) with P9A, S10A, H11A, E12A, Y15A
# [3] = molecular target: T3, drSLC38A9^97-549 (N-terminal deletion, without N-plug) (Danio rerio, UniProt Q08BA4, N227Q/N235Q/N252Q/N263Q); experiment: [3H]leucine uptake in proteoliposomes, filtration; conditions: 0.5 uM labelled compound, pH 5.0 assay buffer, room temperature; with or without 200 uM arginine
# T3 construct: gene slc38a9; residues 97-549 (N-plug deleted); N-terminal His8-thrombin tag removed; Sf-9; liposomes
# T3 sequence (Q08BA4 97-549 N227Q/N235Q/N252Q/N263Q): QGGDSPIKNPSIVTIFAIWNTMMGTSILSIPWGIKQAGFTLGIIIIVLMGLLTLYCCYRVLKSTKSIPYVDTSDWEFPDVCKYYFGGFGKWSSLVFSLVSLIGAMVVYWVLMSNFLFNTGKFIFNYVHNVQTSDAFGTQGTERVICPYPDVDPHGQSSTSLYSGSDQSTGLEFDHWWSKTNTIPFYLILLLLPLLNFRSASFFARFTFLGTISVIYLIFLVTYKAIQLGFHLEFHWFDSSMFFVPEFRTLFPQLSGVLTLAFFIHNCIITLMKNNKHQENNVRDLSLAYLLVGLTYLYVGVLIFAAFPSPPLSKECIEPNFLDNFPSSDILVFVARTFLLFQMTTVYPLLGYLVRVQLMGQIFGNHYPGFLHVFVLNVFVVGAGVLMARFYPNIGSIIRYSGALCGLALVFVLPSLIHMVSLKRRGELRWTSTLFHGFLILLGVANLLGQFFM
smiles,measurement,setting,value
N=C(N)NCCC[C@H](N)C(=O)O [arginine],"[3H]arginine uptake in proteoliposomes, filtration, 5 min",[1],the construct studied structurally here and the wild-type drSLC38A9 transport arginine with similar rates
CC(C)C[C@H](N)C(=O)O [leucine],"[3H]leucine uptake in proteoliposomes, filtration",[2],The mutant proteins show similar transport capacity for leucine regardless of whether arginine was added
same,"[3H]leucine uptake in proteoliposomes, filtration",[3],The mutant proteins show similar transport capacity for leucine regardless of whether arginine was added
